Source: patent US11512090B2, “Muscarinic acetylcholine M1 receptor antagonists” (PIPELINE THERAPEUTICS, INC., priority 2018, dated 2022)
Where two headings read alike, the source gives them in different places.

Legend:
Format in all cases: cell-based
human M1 receptor = target: T1, human M1 receptor (Homo sapiens, UniProt P11229); experiment: In vitro functional assay of muscarinic acetylcholine receptor activity (aequorin calcium flux, antagonist mode vs EC80 acetylcholine), M1
T1 sequence (P11229 1-460): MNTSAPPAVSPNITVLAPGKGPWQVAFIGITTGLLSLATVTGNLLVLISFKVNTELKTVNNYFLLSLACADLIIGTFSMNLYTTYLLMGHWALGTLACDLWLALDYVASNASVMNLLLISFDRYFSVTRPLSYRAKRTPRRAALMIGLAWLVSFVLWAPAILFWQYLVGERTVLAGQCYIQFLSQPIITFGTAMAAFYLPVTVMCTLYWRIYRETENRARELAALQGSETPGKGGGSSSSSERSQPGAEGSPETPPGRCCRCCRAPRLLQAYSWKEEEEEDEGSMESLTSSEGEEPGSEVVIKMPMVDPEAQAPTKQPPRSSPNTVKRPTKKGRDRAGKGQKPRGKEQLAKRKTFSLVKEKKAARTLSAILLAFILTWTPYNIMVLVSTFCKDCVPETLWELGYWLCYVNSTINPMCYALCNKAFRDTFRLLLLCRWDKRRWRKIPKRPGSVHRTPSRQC
Summary of the method: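 CHO-K1 cells stably co-expressing human M1 and aequorin were loaded with 5 uM coelenterazine h for 4 h at room temperature in the dark. IC50 came from the drop in luminescence.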

M2 = target: T2, M2 (Homo sapiens, UniProt P08172); experiment: In vitro functional assay of muscarinic acetylcholine receptor activity, M2
T2 sequence (P08172 1-466): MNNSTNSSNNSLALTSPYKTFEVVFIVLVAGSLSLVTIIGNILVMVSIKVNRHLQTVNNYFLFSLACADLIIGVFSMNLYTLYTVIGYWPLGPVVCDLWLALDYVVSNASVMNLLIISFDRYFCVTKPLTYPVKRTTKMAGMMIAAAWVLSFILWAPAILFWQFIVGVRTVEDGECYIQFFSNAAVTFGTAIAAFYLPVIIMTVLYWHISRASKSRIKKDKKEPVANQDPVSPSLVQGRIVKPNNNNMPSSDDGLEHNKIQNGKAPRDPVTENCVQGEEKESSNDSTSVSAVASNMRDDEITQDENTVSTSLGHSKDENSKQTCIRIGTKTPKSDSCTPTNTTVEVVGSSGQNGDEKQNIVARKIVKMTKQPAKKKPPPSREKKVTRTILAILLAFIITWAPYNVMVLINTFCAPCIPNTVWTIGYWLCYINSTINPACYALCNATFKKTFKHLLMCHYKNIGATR

M3 = M3 (Homo sapiens, UniProt P20309); experiment: In vitro functional assay of muscarinic acetylcholine receptor activity, M3
Chain of M3 (P20309 whole entry): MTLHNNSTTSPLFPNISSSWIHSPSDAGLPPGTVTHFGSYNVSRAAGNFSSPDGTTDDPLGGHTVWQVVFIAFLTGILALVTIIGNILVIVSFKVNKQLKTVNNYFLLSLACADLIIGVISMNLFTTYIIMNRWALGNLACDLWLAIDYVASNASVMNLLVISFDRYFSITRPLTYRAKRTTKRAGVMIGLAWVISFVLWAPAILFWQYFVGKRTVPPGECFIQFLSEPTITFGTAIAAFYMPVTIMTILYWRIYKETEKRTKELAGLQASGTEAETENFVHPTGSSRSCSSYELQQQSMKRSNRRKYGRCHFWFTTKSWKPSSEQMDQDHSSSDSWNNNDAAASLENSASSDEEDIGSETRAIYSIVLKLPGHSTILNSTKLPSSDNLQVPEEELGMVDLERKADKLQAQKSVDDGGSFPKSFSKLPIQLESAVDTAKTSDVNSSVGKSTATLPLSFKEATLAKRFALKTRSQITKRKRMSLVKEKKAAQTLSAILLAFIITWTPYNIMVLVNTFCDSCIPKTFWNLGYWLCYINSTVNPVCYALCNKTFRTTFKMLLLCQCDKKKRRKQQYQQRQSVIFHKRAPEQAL

[1] = CHO-K1 cells stably expressing human M1 receptor with Aequorin, decrease in EC80 acetylcholine response, read-out: M1 IC50
[2] = antagonist IC50 at M2, read-out: M2 IC50
[3] = antagonist IC50 at M3, read-out: M3 IC50

| IC50 (human M1 receptor; [1]) | Compound | IC50 (M2; [2]) | IC50 (M3; [3]) | IC50 (human M1 receptor) | IC50 (M3) | IC50 (M2) |
| --- | --- | --- | --- | --- | --- | --- |
| 0.1 to 1 µM | O=C(CCS(=O)(=O)c1cccc2ncsc12)N1CCN(c2ccc(CO)cc2)CC1 [Example 138, 3-(1,3-benzothiazole-7-sulfonyl)-1-{4-[4-(hydroxymethyl)phenyl]piperazin-1-yl}propan-1-one] | > 10 µM | > 10 µM |  |  |  |
|  | O=C(CCNCc1c(F)ccc2nccn12)N1CC2CCC(C1)N2c1ccncc1F [Example 139, 3-[({6-fluoroimidazo[1,2-a]pyridin-5-yl}methyl)amino]-1-[8-(3-fluoropyridin-4-yl)-3,8-diazabicyclo[3.2.1]octan-3-yl]propan-1-one] | > 10 µM | > 10 µM | 0.1 to 1 µM |  |  |
| < 0.1 µM | O=C(CCS(=O)(=O)c1cccc2ncsc12)N1CC=C(c2ccc(C(F)(F)F)cn2)CC1 [Example 140, 3-(1,3-benzothiazole-7-sulfonyl)-1-[5-(trifluoromethyl)-1′,2′,3′,6′-tetrahydro-[2,4′-bipyridin]-1′-yl]propan-1-one] | 1 to 10 µM | 1 to 10 µM |  |  |  |
|  | N#Cc1ccc(C2=CC3CCC(C2)N3C(=O)CCS(=O)(=O)c2cccc3ncsc23)nc1 (stereo not drawn) [Example 141, 6-{8-[3-(1,3-benzothiazole-7-sulfonyl)propanoyl]-8-azabicyclo[3.2.1]oct-2-en-3-yl}pyridine-3-carbonitrile] | 1 to 10 µM | > 10 µM | 0.1 to 1 µM |  |  |
|  | O=C(CCS(=O)(=O)c1cccc2nccn12)N1CC2CCC(C1)N2c1ccc(Cl)cn1 [Example 143, 1-[8-(5-chloropyridin-2-yl)-3,8-diazabicyclo[3.2.1]octan-3-yl]-3-{imidazo[1,2-a]pyridine-5-sulfonyl}propan-1-one] | 1 to 10 µM | 1 to 10 µM | < 0.1 µM |  |  |
| < 0.1 µM | Cc1cc(C#N)ncc1N1CCN(C(=O)CCS(=O)(=O)c2cccc3nccn23)[C@@H](C)C1 [Example 144, 5-[(3S)-4-(3-{imidazo[1,2-a]pyridine-5-sulfonyl}propanoyl)-3-methylpiperazin-1-yl]-4-methylpyridine-2-carbonitrile] | > 10 µM | > 10 µM |  |  |  |
|  | N#Cc1ccc(N2C3CCC2CN(C(=O)CCS(=O)(=O)c2cccc4ncsc24)C3)cn1 [Example 146, 5-{3-[3-(1,3-benzothiazole-7-sulfonyl)propanoyl]-3,8-diazabicyclo[3.2.1]octan-8-yl}pyridine-2-carbonitrile] | 0.1 to 1 µM | 0.1 to 1 µM | < 0.1 µM |  |  |
|  | O=C(CCS(=O)(=O)c1cccc2ncsc12)N1CC2CCC(C1)N2c1ccc(C(F)(F)F)cn1 [Example 147, 3-(1,3-benzothiazole-7-sulfonyl)-1-{8-[5-(trifluoromethyl)pyridin-2-yl]-3,8-diazabicyclo[3.2.1]octan-3-yl}propan-1-one] | < 0.1 µM | < 0.1 µM | < 0.1 µM |  |  |
|  | O=C(CCNCc1cccc2ncsc12)N1CC2CCC(C1)N2c1ccc(C(F)(F)F)cn1 [Example 148, 3-{[(1,3-benzothiazol-7-yl)methyl]amino}-1-{8-[5-(trifluoromethyl)pyridin-2-yl]-3,8-diazabicyclo[3.2.1]octan-3-yl}propan-1-one] | 1 to 10 µM | 1 to 10 µM | 0.1 to 1 µM |  |  |
| < 0.1 µM | Cn1cnc2cccc(S(=O)(=O)CCC(=O)N3CCN(c4ccc(C(F)(F)F)cn4)CC3)c21 [Example 149, 3-[(1-methyl-1H-1,3-benzodiazol-7-yl)sulfonyl]-1-{4-[5-(trifluoromethyl)pyridin-2-yl]piperazin-1-yl}propan-1-one] | 0.1 to 1 µM | 1 to 10 µM |  |  |  |
|  | N#Cc1ccc(N2C3CCC2CN(C(=O)CCNCc2cccc4nsnc24)C3)nc1 [Example 150, 6-[3-(3-{[(2,1,3-benzothiadiazol-4-yl)methyl]amino}propanoyl)-3,8-diazabicyclo[3.2.1]octan-8-yl]pyridine-3-carbonitrile] | 1 to 10 µM | > 10 µM | 0.1 to 1 µM |  |  |
| 1 to 10 µM | Cc1cc(C#N)ncc1N1CCN(C(=O)CCNCc2c(F)ccc3nccn23)[C@@H](C)C1 [Example 151, 5-[(3S)-4-{3-[({6-fluoroimidazo[1,2-a]pyridin-5-yl}methyl)amino]propanoyl}-3-methylpiperazin-1-yl]-4-methylpyridine-2-carbonitrile] | 1 to 10 µM | > 10 µM |  |  |  |
|  | O=C(CCNCc1c(F)ccc2nccn12)N1CC2CCC(C1)N2c1ccc(C(F)(F)F)cn1 [Example 152, 3-[({6-fluoroimidazo[1,2-a]pyridin-5-yl}methyl)amino]-1-{8-[5-(trifluoromethyl)pyridin-2-yl]-3,8-diazabicyclo[3.2.1]octan-3-yl}propan-1-one] | 1 to 10 µM | > 10 µM | < 0.1 µM |  |  |
| < 0.1 µM | Cc1cc(C(F)(F)F)ncc1N1CCN(C(=O)CCS(=O)(=O)c2cccc3ncsc23)[C@@H](C)C1 [Example 153, 3-(1,3-benzothiazole-7-sulfonyl)-1-[(2S)-2-methyl-4-[4-methyl-6-(trifluoromethyl)pyridin-3-yl]piperazin-1-yl]propan-1-one] | 0.1 to 1 µM | 0.1 to 1 µM |  |  |  |
|  | N#Cc1ccc(N2C3COCC2CN(C(=O)CCCc2cccc4ncccc24)C3)nc1 [Example 154, 6-{7-[4-(quinolin-5-yl)butanoyl]-3-oxa-7,9-diazabicyclo[3.3.1]nonan-9-yl}pyridine-3-carbonitrile] | 1 to 10 µM |  | < 0.1 µM | 0.1 to 1 µM |  |
|  | O=C(CCNCc1cccc2ncnn12)N1CC2CCC(C1)N2c1ccc(Br)cn1 [Example 156, 1-[8-(5-bromopyridin-2-yl)-3,8-diazabicyclo[3.2.1]octan-3-yl]-3-[({[1,2,4]triazolo[1,5-a]pyridin-5-yl}methyl)amino]propan-1-one] | 1 to 10 µM | 1 to 10 µM | 0.1 to 1 µM |  |  |
|  | O=C(CCNCc1cccc2ncnn12)N1CC2CCC(C1)N2c1ccc(Cl)cn1 [Example 157, 1-[8-(5-chloropyridin-2-yl)-3,8-diazabicyclo[3.2.1]octan-3-yl]-3-[({[1,2,4]triazolo[1,5-a]pyridin-5-yl}methyl)amino]propan-1-one] | > 10 µM | > 10 µM | < 0.1 µM |  |  |
|  | N#Cc1ccc(N2C3CCC2CN(C(=O)C(F)(F)CNCc2cccc4ncsc24)C3)nc1 [Example 158, 6-[3-(3-{[(1,3-benzothiazol-7-yl)methyl]amino}-2,2-difluoropropanoyl)-3,8-diazabicyclo[3.2.1]octan-8-yl]pyridine-3-carbonitrile] |  | 1 to 10 µM | 0.1 to 1 µM |  | 0.1 to 1 µM |
|  | N#Cc1cc(N2C3CCC2CN(C(=O)CCNCc2cccc4ncsc24)C3)ccn1 [Example 159, 4-[3-(3-{[(1,3-benzothiazol-7-yl)methyl]amino}propanoyl)-3,8-diazabicyclo[3.2.1]octan-8-yl]pyridine-2-carbonitrile] | 1 to 10 µM | > 10 µM | < 0.1 µM |  |  |
|  | N#Cc1ccc(N2CC3CCC(C2)N3C(=O)CCNCc2cccc3ncsc23)nc1 [Example 160, 6-[8-(3-{[(1,3-benzothiazol-7-yl)methyl]amino}propanoyl)-3,8-diazabicyclo[3.2.1]octan-3-yl]pyridine-3-carbonitrile] | 1 to 10 µM | > 10 µM | 0.1 to 1 µM |  |  |
|  | Cc1cc(C#N)cnc1N1CC2CCC(C1)N2C(=O)CCNCc1cccc2ncsc12 [Example 161, 6-[8-(3-{[(1,3-benzothiazol-7-yl)methyl]amino}propanoyl)-3,8-diazabicyclo[3.2.1]octan-3-yl]-5-methylpyridine-3-carbonitrile] | 1 to 10 µM | > 10 µM | 0.1 to 1 µM |  |  |

| Compound | IC50 (human M1 receptor; [1]) | IC50 (M2; [2]) | IC50 (M3; [3]) | IC50 (human M1 receptor) | IC50 (M3) | IC50 (M2) |
| --- | --- | --- | --- | --- | --- | --- |
| N#Cc1ccc(C2CC3CCC(C2)N3C(=O)CCS(=O)(=O)c2cccc3ncsc23)nc1 (stereo not drawn) [Example 142, 6-{8-[3-(1,3-benzothiazole-7-sulfonyl)propanoyl]-8-azabicyclo[3.2.1]octan-3-yl}pyridine-3-carbonitrile] | 1 to 10 µM | 1 to 10 µM | > 10 µM |  |  |  |
| N#Cc1ccc(N2C3CCC2CN(C(=O)CCNCc2cccc4ncccc24)C3)nc1 [Example 155, 6-[3-(3-{[(quinolin-5-yl)methyl]amino}propanoyl)-3,8-diazabicyclo[3.2.1]octan-8-yl]pyridine-3-carbonitrile] | 1 to 10 µM | > 10 µM | > 10 µM |  |  |  |
